According to ChEMBL document CHEMBL2086344, “Halicloic acids A and B isolated from the marine sponge Haliclona sp. collected in the Philippines inhibit indoleamine 2,3-dioxygenase” (J Nat Prod, 2012):
Calls of active or inactive are those of the source. The calls are words filed in the database; no cut-off is given here.

The molecules below were run against T1, Indoleamine 2,3-dioxygenase 1 (Homo sapiens, UniProt P14902) (assay: Inhibition of recombinant human IDO expressed in Escherichia coli using L-tryptophan as substrate at 200 uM after 60 mins by spectrophotometry).
Target sequence in this assay (P14902 whole entry, looked up): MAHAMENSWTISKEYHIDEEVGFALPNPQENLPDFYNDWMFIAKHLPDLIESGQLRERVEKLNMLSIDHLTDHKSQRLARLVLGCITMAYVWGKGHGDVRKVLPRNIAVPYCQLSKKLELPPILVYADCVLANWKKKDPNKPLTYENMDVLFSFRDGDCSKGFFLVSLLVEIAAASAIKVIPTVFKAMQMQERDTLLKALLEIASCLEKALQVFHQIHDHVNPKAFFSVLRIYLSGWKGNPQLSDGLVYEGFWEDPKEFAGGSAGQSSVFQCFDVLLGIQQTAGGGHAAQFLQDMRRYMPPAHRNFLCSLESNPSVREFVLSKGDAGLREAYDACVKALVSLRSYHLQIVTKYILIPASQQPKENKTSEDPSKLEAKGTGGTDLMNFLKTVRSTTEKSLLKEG

Structure (SMILES) | inhibition
O=C(O)C(O)c1ccccc1 (stereo not drawn) | inactive
O=Cc1ccc(O)cc1 | inactive
O=C(O)C(O)c1ccc(O)cc1 (stereo not drawn) | inactive
O=Cc1ccccc1 | inactive

The molecules below were run against T1, Indoleamine 2,3-dioxygenase 1 (assay: Inhibition of recombinant human IDO expressed in Escherichia coli using L-tryptophan as substrate after 60 mins by spectrophotometry).
Target sequence in this assay (P14902 whole entry): as the sequence (P14902 whole entry, looked up) above

IC50 [µM] | Structure (SMILES)
10 | CC1(C)CCC[C@]2(C)O[C@H]3CC[C@@]4(C)[C@@H](CC[C@]5(C)[C@@H]4CC[C@]4(C)c6c(C(O)C(=O)O)ccc(O)c6C[C@@H]54)[C@]3(C)CC[C@@H]12 (stereo partly drawn) [HALICLOIC ACID A]
11 | CC1=CCC[C@@H](C)[C@]1(C)CC[C@@]1(C)[C@@H]2CC[C@]3(C)[C@H](CC[C@]4(C)c5c(C(O)C(=O)O)ccc(O)c5C[C@@H]34)[C@@]2(C)CC[C@@H]1O (relative stereo)
53 | CC1(C)CCC[C@]2(C)O[C@H]3CC[C@@]4(C)[C@@H](CC[C@]5(C)[C@@H]4CC[C@]4(C)c6c(C=O)ccc(O)c6C[C@@H]54)[C@]3(C)CC[C@@H]12
29 | CC1=CCC[C@@H](C)[C@]1(C)CC[C@@]1(C)[C@@H]2CC[C@]3(C)[C@H](CC[C@]4(C)c5c(C=O)ccc(O)c5C[C@@H]34)[C@@]2(C)CC[C@@H]1O
